Data: patent publication US8497256B2, “Formulations and uses of 2-hydroxy-5-phenylazobenzoic acid derivatives for the treatment of males” (Salix Pharmaceuticals, Ltd, priority 2010, dated 2013)
Structures can show the parent of a compound that is named as a salt. Where two headings read alike, the source gives them in different places. Marks after values point to notes of the source that are not given here.

Tests used:
CYP2C9 [1] = target: T1, CYP2C9 (Homo sapiens, UniProt P11712); conditions: microsomes
T1 sequence (P11712 whole entry): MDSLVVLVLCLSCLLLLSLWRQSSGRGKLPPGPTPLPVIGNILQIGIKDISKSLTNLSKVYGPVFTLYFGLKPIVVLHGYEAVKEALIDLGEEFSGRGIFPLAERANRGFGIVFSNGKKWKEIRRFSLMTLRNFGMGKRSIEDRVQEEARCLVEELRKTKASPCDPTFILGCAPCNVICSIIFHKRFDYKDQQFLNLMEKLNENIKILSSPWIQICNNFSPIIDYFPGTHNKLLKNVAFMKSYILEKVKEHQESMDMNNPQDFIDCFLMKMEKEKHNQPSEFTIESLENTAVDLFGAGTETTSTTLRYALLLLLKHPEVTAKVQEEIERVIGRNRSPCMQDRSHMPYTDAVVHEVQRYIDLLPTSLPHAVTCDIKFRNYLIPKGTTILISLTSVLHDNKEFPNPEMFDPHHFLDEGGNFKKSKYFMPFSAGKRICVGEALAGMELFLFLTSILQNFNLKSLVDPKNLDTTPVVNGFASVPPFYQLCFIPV

CYP2D6 [2] = target: T2, CYP2D6 (Homo sapiens, UniProt P10635); conditions: microsomes
T2 sequence (P10635 whole entry): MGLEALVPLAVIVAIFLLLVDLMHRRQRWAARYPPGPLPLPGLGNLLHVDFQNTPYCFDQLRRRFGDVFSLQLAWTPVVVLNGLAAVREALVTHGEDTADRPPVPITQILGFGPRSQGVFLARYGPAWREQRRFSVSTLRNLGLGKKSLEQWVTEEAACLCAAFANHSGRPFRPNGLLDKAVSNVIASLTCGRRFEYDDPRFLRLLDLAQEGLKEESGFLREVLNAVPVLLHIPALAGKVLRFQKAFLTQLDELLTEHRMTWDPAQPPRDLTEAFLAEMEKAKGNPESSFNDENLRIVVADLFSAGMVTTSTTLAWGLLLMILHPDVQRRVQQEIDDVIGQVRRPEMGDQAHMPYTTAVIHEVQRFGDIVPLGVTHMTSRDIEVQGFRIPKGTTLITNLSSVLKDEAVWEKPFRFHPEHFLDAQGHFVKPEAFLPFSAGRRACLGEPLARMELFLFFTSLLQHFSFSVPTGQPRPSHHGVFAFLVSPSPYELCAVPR

CYP1A2 [3] = target: T3, CYP1A2 (Homo sapiens, UniProt P05177); conditions: microsomes
T3 sequence (P05177 1-516): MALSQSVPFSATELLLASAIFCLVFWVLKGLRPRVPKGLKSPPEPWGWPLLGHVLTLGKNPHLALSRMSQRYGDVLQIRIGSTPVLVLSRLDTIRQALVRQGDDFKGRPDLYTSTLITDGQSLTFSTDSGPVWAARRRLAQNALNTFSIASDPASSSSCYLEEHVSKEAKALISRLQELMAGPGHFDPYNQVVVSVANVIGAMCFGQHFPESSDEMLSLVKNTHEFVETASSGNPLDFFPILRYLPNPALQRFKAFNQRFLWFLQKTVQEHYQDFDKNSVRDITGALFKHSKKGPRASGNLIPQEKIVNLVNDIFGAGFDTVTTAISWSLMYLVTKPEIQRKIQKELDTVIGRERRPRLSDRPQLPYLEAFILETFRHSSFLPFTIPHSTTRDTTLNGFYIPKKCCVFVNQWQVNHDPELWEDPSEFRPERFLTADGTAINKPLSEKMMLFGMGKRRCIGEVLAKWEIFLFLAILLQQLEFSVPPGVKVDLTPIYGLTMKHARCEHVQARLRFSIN

human lymphocyte = experiment: Human lymphocyte chromosomal aberration test; format: cell-based; conditions: in vitro
From the text: (§1) For a 50 kg person of average height this dose represents 2.5 times the recommended human dose on a body surface area basis. Balsalazide disodium was not genotoxic in the following in vitro or in vivo tests: Ames test, human lymphocyte chromosomal aberration test, and mouse lymphoma cell (L5178Y/TK+/−) forward mutation test, or mouse micronucleus test. However, it was genotoxic in the in vitro Chinese hamster lung cell (CH V79/HGPRT) forward mutation test.
(§2) The compound 4-aminobenzoyl-β-alanine, a metabolite of balsalazide disodium, was not genotoxic in the Ames test and the mouse lymphoma cell (L5178Y/TK+/−) forward mutation test but was positive in the human lymphocyte chromosomal aberration test. N-acetyl-4-aminobenzoyl-β-alanine, a conjugated metabolite of balsalazide disodium, was not genotoxic in Ames test, the mouse lymphoma cell (L5178Y/TK+/−) forward mutation test, or the human lymphocyte chromosomal aberration test.

Ames test = format: cell-based; conditions: in vitro
From the text: as §1, §2

[4] = tested on: mouse lymphoma cell (L5178Y/TK+/−); experiment: Mouse lymphoma cell forward mutation test; format: cell-based; conditions: in vitro
From the text: as §1, §2

CYP2C19 [5] = target: T4, CYP2C19 (Homo sapiens, UniProt P33261); conditions: microsomes
T4 sequence (P33261 whole entry): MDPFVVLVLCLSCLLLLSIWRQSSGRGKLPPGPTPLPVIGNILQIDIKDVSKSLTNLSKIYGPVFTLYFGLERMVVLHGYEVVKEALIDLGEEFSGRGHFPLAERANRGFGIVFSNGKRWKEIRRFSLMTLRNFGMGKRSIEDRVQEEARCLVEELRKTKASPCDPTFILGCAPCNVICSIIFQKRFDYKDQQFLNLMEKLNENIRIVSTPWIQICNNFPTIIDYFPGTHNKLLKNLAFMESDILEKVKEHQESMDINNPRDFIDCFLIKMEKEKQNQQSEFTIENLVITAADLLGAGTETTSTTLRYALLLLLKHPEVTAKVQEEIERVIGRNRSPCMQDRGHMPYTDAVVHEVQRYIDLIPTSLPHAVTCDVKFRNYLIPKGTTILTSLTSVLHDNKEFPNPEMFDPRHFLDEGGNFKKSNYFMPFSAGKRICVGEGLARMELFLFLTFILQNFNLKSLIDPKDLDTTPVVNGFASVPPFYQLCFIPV

CYP3A4/5 [6] = conditions: microsomes
[7] = cited from earlier work
human plasma proteins [8] = tested on: human plasma proteins
clinical [9] = conditions: human, in vivo, po, 3.3 g, Median Tmax
[10] = human, in vivo, po, 3.3 g
[11] = Food effect on pharmacokinetics, single 3.3 g dose of GIAZO; conditions: single dose 3.3 g GIAZO; for Change (reduction) of AUC0-∞ under fed conditions / Reduction of mean Cmax under fed conditions: high-fat meal vs fasted; for Tmax: human, plasma, po, 3.3 g, Median Tmax
clinical [12] = experiment: clinical
From the text: Before further description and in order that the invention may be more readily understood, certain terms are first defined and collected here for convenience. Common pharmacologic term used herein refer are as follows: Tmax (time to maximum concentration); Cmax (observed maximum concentration); kel (slope of terminal linear portion of concentration/time curve); T1/2 (half-life of balsalazide calculated as: 0.693/Kel); AUC(last) (area under the curve to last quantifiable concentration as measured by the trapezoidal rule); and AUC(inf) (the AUC value extrapolated to infinity calculated as: AUC(inf)=AUC(last)+C(t)last/Kel where C(t) last is the last measurable concentration).

CYP2D6 [13] = target: T2, CYP2D6; experiment: CYP inhibition in human liver microsomes
human plasma proteins [14] = experiment: Plasma protein binding
CYP2C19 [15] = target: T4, CYP2C19; experiment: CYP inhibition in human liver microsomes
CYP1A2 [16] = target: T3, CYP1A2; experiment: CYP inhibition in human liver microsomes
CYP2C9 [17] = target: T1, CYP2C9; experiment: CYP inhibition in human liver microsomes
CYP3A4/5 [18] = experiment: CYP inhibition in human liver microsomes
[19] = 24-month rat carcinogenicity study; format: in vivo, rat (Sprague Dawley); conditions: 24 months, oral (dietary), doses up to 2 g/kg/day
From the text: as §1

[20] = Solubility of balsalazide disodium; format: physicochemical
From the text: It is a stable, odorless, orange to yellow, microcrystalline powder. […] Balsalazide disodium has the chemical name (E)-5-[[-4-[[(2-carboxyethyl) amino]carbonyl]phenyl]azo]-2-hydroxybenzoic acid, disodium salt, dihydrate (Molecular Weight: 437.32; Molecular Formula: C17H13N3O6Na2.2H2O).
Each GIAZO tablet contains 1.1 g of balsalazide disodium, film-coated for oral delivery. Balsalazide disodium is insoluble in acid, but soluble at a pH of at least 4.5. […] The sodium content of each tablet is approximately 126 mg.
Mesalamine is 5-aminosaliacylic acid and appears to act topically.

[21] = tested on: Chinese hamster lung cell (CH V79/HGPRT); format: cell-based
From the text: as §1

[22] = Reproduction / fertility studies in rats; format: in vivo, rat; conditions: oral doses up to 2 g/kg/day
From the text: (§3) There are, however, no adequate and well-controlled studies in pregnant women. Because animal reproduction studies are not always predictive of human response, this drug should be used during pregnancy only if clearly needed.
as §2

[23] = Reproduction studies in rabbits; format: in vivo, rabbit; conditions: oral doses up to 2 g/kg/day
From the text: as §3

Mouse micronucleus test = conditions: in vivo
From the text: as §1

[24] = human, in vivo, Terminal half-life
[25] = repeated dose (Q12) 3.3 g as GIAZO, N = 18
[26] = single dose 3.3 g as GIAZO, N = 18

Compound: Nc1ccc(C(=O)NCCC(=O)O)cc1 [4-ABA, 4-aminobenzoyl-β-alanine]
- Inhibition of CYP2C9 (CYP2C9 [1]): not shown to inhibit
- Inhibition of CYP2D6 (CYP2D6 [2]): not shown to inhibit
- Inhibition of CYP1A2 (CYP1A2 [3]): not shown to inhibit
- Genotoxicity, human lymphocyte chromosomal aberration test (human lymphocyte): positive
- Genotoxicity, Ames test (Ames test): not genotoxic
- Genotoxicity, mouse lymphoma cell (L5178Y/TK+/−) forward mutation test [4]: not genotoxic
- Inhibition of CYP2C19 (CYP2C19 [5]): not shown to inhibit
- Inhibition of CYP3A4/5 (CYP3A4/5 [6]): not shown to inhibit
- Absorption of the released carrier component ([7]; largely eliminated in the feces): poorly absorbed

Compound: Nc1ccc(O)c(C(=O)O)c1 [5-ASA, 5-aminosalicylic acid]
- Binding to plasma proteins (human plasma proteins [8]): 43%
- Inhibition of CYP2C9 (CYP2C9 [1]): not shown to inhibit
- Inhibition of CYP2D6 (CYP2D6 [2]): not shown to inhibit
- Tmax (clinical [9]): 12 h
- Inhibition of CYP1A2 (CYP1A2 [3]): not shown to inhibit
- Median Tmax [10]: 24 h
- Change (reduction) of AUC0-∞ under fed conditions [11]: 46%
- Reduction of mean Cmax under fed conditions [11]: 65%
- Inhibition of CYP2C19 (CYP2C19 [5]): not shown to inhibit
- AUC(0-inf) (clinical [12]; human, in vivo): 8500 ng·h/mL
- AUCtau, mean (clinical [12]; human, in vivo): 2200 ng·h/mL
- Cmax, mean (clinical [12]; human, in vivo): 500 ng/mL
- Tmax (clinical [12]; human, in vivo): 12 h
- half-life (clinical [12]; human, in vivo, T1/2, mean): 9.5 h
- half-life (clinical [12]; [24]): 9.5 h

Compound: CC(=O)Nc1ccc(O)c(C(=O)O)c1 [N-Ac-5-ASA, N-acetyl-5-aminosalyicylic acid]
- Inhibition of CYP2D6 (CYP2D6 [13]): not shown to inhibit
- Binding to plasma proteins (human plasma proteins [14]): 78%
- Inhibition of CYP2C19 (CYP2C19 [15]): not shown to inhibit
- Inhibition of CYP1A2 (CYP1A2 [16]): not shown to inhibit
- Median Tmax ([11]; fasted): 12 h
- Change (reduction) of AUC0-∞ under fed conditions [11]: 17%
- Reduction of mean Cmax under fed conditions [11]: 48%
- Median Tmax ([11]; with a high fat meal): 24 h
- Inhibition of CYP2C9 (CYP2C9 [17]): not shown to inhibit
- Inhibition of CYP3A4/5 (CYP3A4/5 [18]): not shown to inhibit
- Terminal half-life (clinical [12]): 10.5 h
- T1/2, mean (clinical [12]; repeated dose (Q12) 3.3 g as GIAZO): 7.2 h
- AUCtau, mean (clinical [12]; [25]): 21000 ng·h/mL
- Cmax, mean (clinical [12]; [25]): 2200 ng/mL
- Tmax, median (clinical [12]; [25]): 10 h
- Accumulation ratio based on AUC (clinical [12]; repeated doses of 3.3 g GIAZO every 12 hours, steady-state vs single dose): 3.6
- Median time of peak plasma concentration (Tmax) (clinical [12]; single dose 3.3 g GIAZO, 18 healthy subjects): 12 h
- AUC0-∞, mean (clinical [12]; [26]): 33500 ng·h/mL
- AUCtau, mean (clinical [12]; [26]): 5900 ng·h/mL
- Cmax, mean (clinical [12]; [26]): 1200 ng/mL
- Tmax, median (clinical [12]; [26]): 12 h
- T1/2, mean (clinical [12]; single dose 3.3 g as GIAZO, N = 17 where marked b): 10.4^b hour
- Mean % of dose excreted in urine over 12 hours (clinical [12]; steady-state, 3.3 g GIAZO every 12 hours, healthy volunteers): 15.6%
- Percent of the oral dose measured in the blood / systemically absorbed ([7]; oral dose): ~12%

Compound: O=C(O)CCNC(=O)c1ccc(/N=N/c2ccc(O)c(C(=O)O)c2)cc1 [balsalazide disodium, (E)-5-[[-4-[[(2-carboxyethyl)amino]carbonyl]phenyl]azo]-2-hydroxybenzoic acid, disodium salt, dihydrate]
- Tumorigenicity [19]: not tumorigenic
- Solubility in acid ([20]; acid): insoluble
- Solubility in all other organic solvents ([20]; all other organic solvents): practically insoluble
- Solubility in methanol and ethanol ([20]; methanol and ethanol): sparingly soluble
- pH at which soluble ([20]; pH): at least 4.5
- Water solubility ([20]; water): highly water-soluble
- Solubility in water and isotonic saline ([20]; water and isotonic saline): freely soluble
- Genotoxicity, human lymphocyte chromosomal aberration test (human lymphocyte): not genotoxic
- Genotoxicity, Chinese hamster lung cell (CH V79/HGPRT) forward mutation test [21]: genotoxic
- Effect on fertility and reproductive performance [22]: no effect on fertility and reproductive performance
- Impaired fertility or harm to the fetus [22]: no evidence of impaired fertility or harm to the fetus
- Impaired fertility or harm to the fetus [23]: no evidence of impaired fertility or harm to the fetus
- Genotoxicity, Ames test (Ames test): not genotoxic
- Genotoxicity, mouse lymphoma cell (L5178Y/TK+/−) forward mutation test [4]: not genotoxic
- Genotoxicity, mouse micronucleus test (Mouse micronucleus test): not genotoxic

Compound: O=C(O)CCNC(=O)c1ccc(/N=N/c2ccc(O)c(C(=O)O)c2)cc1 [balsalazide]
- Inhibition of CYP2C9 (CYP2C9 [1]): not shown to inhibit
- Inhibition of CYP2D6 (CYP2D6 [2]): not shown to inhibit
- Inhibition of CYP1A2 (CYP1A2 [3]): not shown to inhibit
- Binding to plasma proteins (human plasma proteins [14]): ≥ 99%
- Change (reduction) of AUC0-∞ under fed conditions [11]: No significant changes
- Reduction of mean Cmax under fed conditions [11]: 44%
- Tmax ([11]; fasted): 0.5 h
- Tmax ([11]; with a high fat meal): 2 h
- Inhibition of CYP2C19 (CYP2C19 [5]): not shown to inhibit
- AUC(0-inf) (clinical [12]; human, in vivo): 1400 ng·h/mL
- T1/2, mean (clinical [12]; human, in vivo): 1.9 h
- Tmax (clinical [12]; human, in vivo): 0.5 h
- AUC (clinical [12]; human, in vivo, AUCtau, mean): 1300 ng·h/mL
- Cmax (clinical [12]; human, in vivo, Cmax, mean): 300 ng/mL
- half-life (clinical [12]; [24]): 1.9 h
- Inhibition of CYP3A4/5 (CYP3A4/5 [6]): not shown to inhibit
